Each molecule was assayed against Tie-2 (Homo sapiens, UniProt Q02763) (assay: Tie-2 tyrosine kinase activity assay (luciferase/luciferin ATP consumption with pEY substrate, or 33P-ATP incorporation)). Details: human enzyme Tie-2.
Chain of Tie-2 (Q02763 23-1124): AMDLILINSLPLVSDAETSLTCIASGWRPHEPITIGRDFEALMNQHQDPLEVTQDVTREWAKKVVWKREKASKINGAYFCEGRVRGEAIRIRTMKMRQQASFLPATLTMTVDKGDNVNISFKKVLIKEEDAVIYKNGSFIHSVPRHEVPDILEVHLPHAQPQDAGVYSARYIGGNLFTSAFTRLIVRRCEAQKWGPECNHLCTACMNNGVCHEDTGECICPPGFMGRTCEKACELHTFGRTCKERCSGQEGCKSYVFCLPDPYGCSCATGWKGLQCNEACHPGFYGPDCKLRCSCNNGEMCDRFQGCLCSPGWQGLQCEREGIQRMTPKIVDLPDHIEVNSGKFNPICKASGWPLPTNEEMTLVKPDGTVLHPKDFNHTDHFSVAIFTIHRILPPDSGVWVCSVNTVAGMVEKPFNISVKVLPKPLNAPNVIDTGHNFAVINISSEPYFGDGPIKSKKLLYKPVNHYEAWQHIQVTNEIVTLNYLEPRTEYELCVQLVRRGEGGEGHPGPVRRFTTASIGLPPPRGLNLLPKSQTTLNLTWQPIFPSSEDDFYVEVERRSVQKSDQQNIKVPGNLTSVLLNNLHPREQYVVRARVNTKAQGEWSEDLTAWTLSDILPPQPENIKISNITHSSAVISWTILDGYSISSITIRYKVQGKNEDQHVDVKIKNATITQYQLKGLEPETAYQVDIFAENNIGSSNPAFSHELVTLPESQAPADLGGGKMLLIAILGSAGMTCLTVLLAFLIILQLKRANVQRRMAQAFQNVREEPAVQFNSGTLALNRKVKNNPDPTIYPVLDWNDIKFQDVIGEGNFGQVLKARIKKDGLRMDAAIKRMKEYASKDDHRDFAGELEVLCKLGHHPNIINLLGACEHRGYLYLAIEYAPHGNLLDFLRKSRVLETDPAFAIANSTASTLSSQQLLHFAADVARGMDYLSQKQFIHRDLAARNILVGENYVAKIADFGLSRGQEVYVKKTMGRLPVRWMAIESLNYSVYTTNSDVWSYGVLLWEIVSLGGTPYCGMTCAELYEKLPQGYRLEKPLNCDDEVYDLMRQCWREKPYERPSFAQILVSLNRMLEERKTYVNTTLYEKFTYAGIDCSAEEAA
Format: biochemical
Procedure, shortened: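 Values are IC50 categories (A <50 nM to D ≥10,000 nM), with Ki obtainable by fitting rates to a tight-binding model. Assay formats: 33P-ATP phosphate transfer to adsorbed generic substrate counted by scintillation, or luciferase-detected ATP depletion using pEY.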
With `O=C(Nc1cc(COc2nsnc2N2CCN(C(=O)Nc3cc(C(F)(F)F)cc(C(F)(F)F)c3)CC2)ccn1)OCCN1CCOCC1` [Example 141, 2-morpholin-4-ylethyl {4-[({4-[4-({[3,5-bis(trifluoromethyl)phenyl]amino}carbonyl)piperazin-1-yl]-1,2,5-thiadiazol-3-yl}oxy)methyl]pyridin-2-yl}carbamate] the IC50 was < 50 nM.
`Nc1nccc(COc2cccnc2N2CCN(C(=O)Nc3cc(C(F)(F)F)cc(C(F)(F)F)c3)CC2)n1` [Example 142, 4-(3-{[(2-aminopyrimidin-4-yl)methyl]oxy}pyridin-2-yl)-N-[3,5-bis(trifluoromethyl)phenyl]piperazine-1-carboxamide] was tested, and the IC50 was < 50 nM.
`CN1CCCC(C(=O)Nc2cc(COc3nsnc3N3CCN(C(=O)Nc4cc(C(F)(F)F)cc(C(F)(F)F)c4)CC3)ccn2)C1` (stereo not shown) [Example 143, N-[3,5-bis(trifluoromethyl)phenyl]-4-(4-{[(2-{[(1-methylpiperidin-3-yl)carbonyl]amino}pyridin-4-yl)methyl]oxy}-1,2,5-thiadiazol-3-yl)piperazine-1-carboxamide] was tested, and the IC50 was < 50 nM.
For `CCc1cccc(NC(=O)N2CCN(c3ncccc3OCc3ccnc(N)n3)CC2)c1` [Example 144, 4-(3-{[(2-aminopyrimidin-4-yl)methyl]oxy}pyridin-2-yl)-N-(3-ethylphenyl)piperazine-1-carboxamide], the IC50 was < 50 nM.
In the case of `CN1CCN(CCOC(=O)Nc2cc(COc3nsnc3N3CCN(C(=O)Nc4cc(C(F)(F)F)cc(C(F)(F)F)c4)CC3)ccn2)CC1` [Example 145, 2-(4-methylpiperazin-1-yl)ethyl {4-[({4-[4-({[3,5-bis(trifluoromethyl)phenyl]amino}carbonyl)piperazin-1-yl]-1,2,5-thiadiazol-3-yl}oxy)methyl]pyridin-2-yl}carbamate], the IC50 is reported as < 50 nM.
`CCN1CCC(C(=O)Nc2cc(COc3nsnc3N3CCN(C(=O)Nc4cc(C(F)(F)F)cc(C(F)(F)F)c4)CC3)ccn2)CC1` [Example 146, N-[3,5-bis(trifluoromethyl)phenyl]-4-(4-{[(2-{[(1-ethylpiperidin-4-yl)carbonyl]amino}pyridin-4-yl)methyl]oxy}-1,2,5-thiadiazol-3-yl)piperazine-1-carboxamide] was tested, and the IC50 was < 50 nM.
With `Nc1cc(COc2nsnc2N2CCN(C(=O)Nc3cccc(SC(F)(F)F)c3)CC2)ccn1` [Example 147, 4-(4-{[(2-aminopyridin-4-yl)methyl]oxy}-1,2,5-thiadiazol-3-yl)-N-{3-[(trifluoromethyl)thio]phenyl}piperazine-1-carboxamide] the IC50 was < 50 nM.
`Nc1cc(COc2nsnc2N2CCN(S(=O)(=O)c3cc(C(F)(F)F)cc(C(F)(F)F)c3)CC2)ccn1` [Example 148, 4-({[4-(4-{[3,5-bis(trifluoromethyl)phenyl]sulfonyl}piperazin-1-yl)-1,2,5-thiadiazol-3-yl]oxy}methyl)pyridin-2-amine] was tested, and the IC50 was ≥ 10000 nM.
For `Nc1cc(COc2nsnc2N2CCN(C(=O)Nc3cccc4ccccc34)CC2)ccn1` [Example 149, 4-(4-{[(2-aminopyridin-4-yl)methyl]oxy}-1,2,5-thiadiazol-3-yl)-N-naphthalen-1-ylpiperazine-1-carboxamide], the IC50 was ≥ 10000 nM.
For `CN(C)CC(=O)Nc1cc(COc2nsnc2N2CCN(C(=O)Nc3cc(C(F)(F)F)cc(C(F)(F)F)c3)CC2)ccn1` [Example 150, N-[3,5-bis(trifluoromethyl)phenyl]-4-{4-[({2-[(N,N-dimethylglycyl)amino]pyridin-4-yl}methyl)oxy]-1,2,5-thiadiazol-3-yl}piperazine-1-carboxamide], the IC50 was < 50 nM.
In the case of `O=C(CN1CCOCC1)Nc1cc(COc2nsnc2N2CCN(C(=O)Nc3cc(C(F)(F)F)cc(C(F)(F)F)c3)CC2)ccn1` [Example 151, N-[3,5-bis(trifluoromethyl)phenyl]-4-{4-[({2-[(morpholin-4-ylacetyl)amino]pyridin-4-yl}methyl)oxy]-1,2,5-thiadiazol-3-yl}piperazine-1-carboxamide], the IC50 is reported as < 50 nM.
In the case of `O=C(CN1CCCCC1)Nc1cc(COc2nsnc2N2CCN(C(=O)Nc3cc(C(F)(F)F)cc(C(F)(F)F)c3)CC2)ccn1` [Example 152, N-[3,5-bis(trifluoromethyl)phenyl]-4-{4-[({2-[(piperidin-1-ylacetyl)amino]pyridin-4-yl}methyl)oxy]-1,2,5-thiadiazol-3-yl}piperazine-1-carboxamide], the IC50 is reported as 50 to 1000 nM.
`CCOC(=O)Nc1cc(COc2nsnc2N2CCN(C(=O)Nc3cc(C(F)(F)F)cc(C(F)(F)F)c3)CC2)ccn1` [Example 153, ethyl {4-[({4-[4-({[3,5-bis(trifluoromethyl)phenyl]amino}carbonyl)piperazin-1-yl]-1,2,5-thiadiazol-3-yl}oxy)methyl]pyridin-2-yl}carbamate] was tested, and the IC50 was < 50 nM.
For `O=C(CN1CCCC1)Nc1cc(COc2nsnc2N2CCN(C(=O)Nc3cc(C(F)(F)F)cc(C(F)(F)F)c3)CC2)ccn1` [Example 154, N-[3,5-bis(trifluoromethyl)phenyl]-4-{4-[({2-[(pyrrolidin-1-ylacetyl)amino]pyridin-4-yl}methyl)oxy]-1,2,5-thiadiazol-3-yl}piperazine-1-carboxamide], the IC50 was < 50 nM.
For `CN1CCN(CC(=O)Nc2cc(COc3nsnc3N3CCN(C(=O)Nc4cc(C(F)(F)F)cc(C(F)(F)F)c4)CC3)ccn2)CC1` [Example 155, N-[3,5-bis(trifluoromethyl)phenyl]-4-(4-{[(2-{[(4-methylpiperazin-1-yl)acetyl]amino}pyridin-4-yl)methyl]oxy}-1,2,5-thiadiazol-3-yl)piperazine-1-carboxamide], the IC50 was < 50 nM.
`CCN(CC)CC(=O)Nc1cc(COc2nsnc2N2CCN(C(=O)Nc3cc(C(F)(F)F)cc(C(F)(F)F)c3)CC2)ccn1` [Example 156, N-[3,5-bis(trifluoromethyl)phenyl]-4-{4-[({2-[(N,N-diethylglycyl)amino]pyridin-4-yl}methyl)oxy]-1,2,5-thiadiazol-3-yl}piperazine-1-carboxamide] showed an IC50 of 50 to 1000 nM.
In the case of `CCN1CCC(OC(=O)Nc2cc(COc3nsnc3N3CCN(C(=O)Nc4cc(C(F)(F)F)cc(C(F)(F)F)c4)CC3)ccn2)CC1` [Example 157, 1-ethylpiperidin-4-yl {4-[({4-[4-({[3,5-bis(trifluoromethyl)phenyl]amino}carbonyl)piperazin-1-yl]-1,2,5-thiadiazol-3-yl}oxy)methyl]pyridin-2-yl}carbamate], the IC50 is reported as < 50 nM.
`CCc1cccc(NC(=O)N2CCN(c3nsnc3OCc3ccnc(N)n3)CC2)c1` [Example 158, 4-(4-{[(2-aminopyrimidin-4-yl)methyl]oxy}-1,2,5-thiadiazol-3-yl)-N-(3-ethylphenyl)piperazine-1-carboxamide] gave an IC50 of 50 to 1000 nM.
`O=C(Nc1cc(C(F)(F)F)cc(C(F)(F)F)c1)N1CCN(c2nsnc2OCc2ccnc(N3CCOC3=O)c2)CC1` [Example 159, N-[3,5-bis(trifluoromethyl)phenyl]-4-[4-({[2-(2-oxo-1,3-oxazolidin-3-yl)pyridin-4-yl]methyl}oxy)-1,2,5-thiadiazol-3-yl]piperazine-1-carboxamide] was tested, and the IC50 was ≥ 10000 nM.
In the case of `CCN(CC)CCOC(=O)Nc1cc(COc2nsnc2N2CCN(C(=O)Nc3cc(C(F)(F)F)cc(C(F)(F)F)c3)CC2)ccn1` [Example 160, 2-(diethylamino)ethyl {4-[({4-[4-({[3,5-bis(trifluoromethyl)phenyl]amino}carbonyl)piperazin-1-yl]-1,2,5-thiadiazol-3-yl}oxy)methyl]pyridin-2-yl}carbamate], the IC50 is reported as < 50 nM.
In the case of `CCc1cccc(NC(=O)N2CCN(c3ncccc3OCc3ccnc(NC(=O)OC)c3)CC2)c1` [Example 161, methyl [4-({[2-(4-{[(3-ethylphenyl)amino]carbonyl}piperazin-1-yl)pyridin-3-yl]oxy}methyl)pyridin-2-yl]carbamate], the IC50 is reported as < 50 nM.
`O=C(Nc1nccc(COc2nsnc2N2CCN(C(=O)Nc3cc(C(F)(F)F)cc(C(F)(F)F)c3)CC2)n1)OCCN1CCCC1` [Example 162, 2-pyrrolidin-1-ylethyl {4-[({4-[4-({[3,5-bis(trifluoromethyl)phenyl]amino}carbonyl)piperazin-1-yl]-1,2,5-thiadiazol-3-yl}oxy)methyl]pyrimidin-2-yl}carbamate] showed an IC50 of 50 to 1000 nM.
For `O=C(Nc1nccc(COc2nsnc2N2CCN(C(=O)Nc3cc(C(F)(F)F)cc(C(F)(F)F)c3)CC2)n1)OCCN1CCCCC1` [Example 163, 2-piperidin-1-ylethyl {4-[({4-[4-({[3,5-bis(trifluoromethyl)phenyl]amino}carbonyl)piperazin-1-yl]-1,2,5-thiadiazol-3-yl}oxy)methyl]pyrimidin-2-yl}carbamate], the IC50 was 50 to 1000 nM.
For `COC(=O)Nc1cc(COc2cccnc2N2CCN(C(=O)Nc3cccc(Br)c3)CC2)ccn1` [Example 164, methyl [4-({[2-(4-{[(3-bromophenyl)amino]carbonyl}piperazin-1-yl)pyridin-3-yl]oxy}methyl)pyridin-2-yl]carbamate], the IC50 was < 50 nM.
Molecule `COC(=O)Nc1cc(COc2cccnc2N2CCN(C(=O)Nc3cccc(OC)c3)CC2)ccn1` [Example 165, methyl {4-[({2-[4-({[3-(methyloxy)phenyl]amino}carbonyl)piperazin-1-yl]pyridin-3-yl}oxy)methyl]pyridin-2-yl}carbamate] has an IC50 of 50 to 1000 nM.
`COc1cccc(NC(=O)N2CCN(c3ncccc3OCc3ccnc(N)n3)CC2)c1` [Example 166, 4-(3-{[(2-aminopyrimidin-4-yl)methyl]oxy}pyridin-2-yl)-N-[3-(methyloxy)phenyl]piperazine-1-carboxamide] gave an IC50 of 50 to 1000 nM.
For `CC(C)c1cccc(NC(=O)N2CCN(c3ncccc3OCc3ccnc(N)n3)CC2)c1` [Example 167, 4-(3-{[(2-aminopyrimidin-4-yl)methyl]oxy}pyridin-2-yl)-N-[3-(1-methylethyl)phenyl]piperazine-1-carboxamide], the IC50 was < 50 nM.
`Nc1nccc(COc2cccnc2N2CCN(C(=O)Nc3cccc(OC(F)(F)F)c3)CC2)n1` [Example 168, 4-(3-{[(2-aminopyrimidin-4-yl)methyl]oxy}pyridin-2-yl)-N-{3-[(trifluoromethyl)oxy]phenyl}piperazine-1-carboxamide] was tested, and the IC50 was < 50 nM.
